These results are taken from the SangsterLogP compilation.

A short description of the series: method code SF-HPLC, from DOI: 10.1016/s0968-0896(00)00015-8, PMID: 10819159. The note with it: pH 7.4.
As to `Nc1ccc(S(=O)(=O)N(COC(=O)c2ccccc2)c2cncs2)cc1`, the log distribution coefficient (logD) was determined as 1.47. In the case of `CCOC(=O)CNC(=O)OCN(c1ccc([N+](=O)[O-])cc1Oc1ccccc1)S(C)(=O)=O` it was 2.28; in that of `CCOC(=O)CN(C)C(=O)OCN(c1ccc([N+](=O)[O-])cc1Oc1ccccc1)S(C)(=O)=O`, 2.2; in that of `Cc1cc(C)nc(N(COC(=O)c2ccccc2)S(=O)(=O)c2ccc(N)cc2)n1`, 3.59.

As to `COC(=O)C1CCCN1C(=O)OCN(c1ccc([N+](=O)[O-])cc1Oc1ccccc1)S(C)(=O)=O` (stereo not given), the log distribution coefficient (logD) stood at 2.85. Take `Cc1noc(N(COC(=O)c2ccccc2)S(=O)(=O)c2ccc(N)cc2)c1C`: the pH-dependent lipophilicity (logD) came to 2.83. In the case of `Cc1cc(C)nc(N(COC(=O)C(C)(C)C)S(=O)(=O)c2ccc(N)cc2)n1` it was 3.07. With `Nc1ccc(S(=O)(=O)N(COC(=O)c2ccccc2)c2ncccn2)cc1`, the logD was 2.15. As to `CC(C)(C)C(=O)OCN(Nc1ccc([N+](=O)[O-])cc1Oc1ccccc1)S(C)(=O)=O`, the logD came to 3.96. The molecule `CS(=O)(=O)N(COC(=O)c1ccccc1)c1ccc([N+](=O)[O-])cc1Oc1ccccc1` returned a logD of 3.97.
